Reference: paper PMC7870626, “Neurotoxicity and underlying cellular changes of 21 mitochondrial respiratory chain inhibitors” (Archives of Toxicology, 2021)
“Also recorded” adds a separate entry of the source.

How the values were obtained:
[1] = tested on: LUHMES cells; experiment: LUHMES 120 h exposure scenario, neurite effects; assay type: cell-based, human
Method: (§1) The NeuriTox test was performed as previously described (Delp et al. [2018b]; Krug et al. [2013a]; Stiegler et al. [2011]). Briefly, cells differentiated for 48 h were re-seeded into 96-well plates at a density of 100,000 cells/cm^2 in DM without cAMP and GDNF, and treated 1 h after seeding for 24 h. Subsequently, multiple endpoints were determined, e.g., neurite outgrowth (i.e., NeuriTox test), resazurin reduction, intracellular ATP content, gene expression levels from TempO-Seq analysis, and proteasomal activity. For the 120 h exposure scenario, LUHMES cells were differentiated for another 3 days after reseeding before they were treated on day 5 (d5) and d7 by a half medium exchange. Endpoints were determined on d10 of differentiation.
(§2) Image acquisition and analysis was performed as described previously (Krug et al. [2013a]; Schildknecht et al. [2013]; Stiegler et al. [2011]). In brief, cells were live-stained with 1 µg/ml Hoechst H-33342 and 1 µM calcein-AM and image acquisition was done by an automated high content imager (Cellomics, Waltham, MA, USA). Cell viability was determined as ratio of live cells (cell bodies being Calcein- and Hoechst-positive) relative to the total amount of cells (Hoechst-positive cell bodies). Neurite area was calculated by subtracting the somatic area (Hoechst-positive area plus surrounding) from the calcein-positive area.

[2] = tested on: U2OS cells; experiment: cells; assay type: cell-based; conditions: Homo sapiens, U2OS, 24 h, read-out: Cytotox EC25 U2OS
Method: A cell suspension of 100,000 cells/ml was prepared in assay medium, and white 384-well plates were filled with 30 µl/well cell suspension. Twenty-four hours after seeding, a dilution series of test compound, as well as positive and negative controls, were added to the cells. After 24 h exposure, the medium was removed, and 10 µl of Triton X-100 lysis buffer was added to each well. The luminescent signal was determined in a luminometer by injecting BDS Illuminate Mix and measuring the light emission. The Cytotox CALUX cell line constitutively expresses a high level of luciferase protein; the light emission is therefore proportional to the cell number of live cells, and its decrease can be used as measure of cytotoxicity. The light emission generated by cells exposed to vehicle control was set to 100%, and the luminescence of cells exposed to the positive control toxicant tributyltin acetate [100 µM] was set to 0%. The light output of the cells exposed to different concentrations of test compounds was scaled accordingly.

[3] = tested on: LUHMES cells; experiment: Intracellular ATP content after NeuriTox exposure; assay type: cell-based; conditions: Homo sapiens; NeuriTox exposure scheme, 24 h; read-out: LUHMES 24 h EC25 ATP (converted)
Method: as §1
Plates from the NeuriTox test were further used after imaging for determination of alternative endpoints. Intracellular ATP was determined as described earlier (Delp et al. [2019]). In brief, CellTiterGlo 2.0 assay mix (Promega) containing luciferase was added after imaging, and luminescence was recorded. For the determination of resazurin reduction, a 10 × resazurin stock solution was added after imaging to the medium (final resazurin concentration 2 µg/ml) (Delp et al. [2018a]). After 60 min incubation, resazurin fluorescence was recorded (ex: 530 nm, em: 590 nm). Background-corrected data was used for further analysis.

[4] = tested on: LUHMES cells; experiment: NeuriTox test: neurite area and viability, 24 h; assay type: cell-based, human; conditions: Homo sapiens
Method: as §1, §2

[5] = tested on: SH-SY5Y cells; experiment: Mitochondrial membrane potential (rhodamine 123), KE2 assay; assay type: cell-based, human; conditions: Homo sapiens, SH-SY5Y, 24 h, read-out: pEC25 MMP (concentration where MMP was reduced by 25%)
Method: Cells were plated at a cell density of 29,500 cells/cm^2 and handled as described above for the neurite SH-SY5Y degeneration. On d6 of differentiation, 50% of the medium was replaced by differentiation medium containing 2 µM Rhodamine 123 (ThermoFisher). After 45 min of preloading at 37 °C with 5% CO2 in darkness, the Rhodamine 123 solution was completely removed and cells were carefully washed once with 200 µl DMEM:F12. Subsequently, 50 µl differentiation medium per well were added followed by the addition of 50 µl/well of test compounds in medium. After 24 h of exposure to the test compounds, the nuclei were stained for 30 min with 20 µL of a solution containing 20 µM Hoechst 33342, and the images were then acquired with a 10 × objective lens using the ImageXpress® Micro (Molecular Devices) high content microplate imager. Nuclei were evaluated in the DAPI channel (excitation 377 ± 50 nm, emission 447 ± 60 nm), whereas Rhodamine 123 fluorescence was detected in the FITC channel (excitation 475 ± 34 nm, emission 536 ± 40 nm). Analysis of the Hoechst 33,342 and Rhodamine 123 fluorescence was performed using the MetaXpress® Software (Molecular Devices) with the Transfluor HT plug-in and the parameters nuclei (for Hoechst-33342) and integrated granule intensity (for Rhodamine 123). Mitochondrial membrane potential (MMP) was quantified as the total fluorescence intensity of Rhodamine 123 in relation to the number of Hoechst-stained nuclei.

[6] = tested on: SH-SY5Y cells; assay type: cell-based, human; conditions: 120 h exposure, up to 10 µM
Method: The cells are able to form neurites and display several dopaminergic characteristics. […] Differentiation was initiated 24 h later (on day 0, d0) by exchange to 100 µl/well differentiation medium (DMEM:F12, supplemented with 1 µM all-trans retinoic acid (RA), 1 × N2 supplement, 2 mM L-glutamine, 100 µg/ml streptomycin, and 100 U/ml penicillin). All media and supplements were obtained from Gibco (ThermoFisher) except from RA (Sigma).
On d3, 100 µl of fresh differentiation medium were added to the wells. For the 120 h exposure, this medium contained twice the final treatment concentration. On d6, 100 µl from each well were removed, and the procedure was repeated and the cells were analyzed on d8. For the 24 h exposure, cells received an addition of 100 µl pure differentiation medium on d3 and were treated with compounds as described above on d6 for 24 h before analysis. […] The cells were incubated with the stain mixture for 20 min at 37 °C, 5% CO2. After incubation, 130 µL of differentiation medium were added to all the wells to stop further staining of the cells. Images were obtained using ImageXpress® Micro (Molecular Devices). […] The mean neurite length was calculated using the Neurite Outgrowth plug-in in the MetaXpress® Software. Outgrowths were defined as cytoplasmic prolongations with a maximum width of 2 µm (3 pixels). The minimum outgrowth size needed to be logged as significant was defined as 15 µm (23 pixels).

## Cc1nn(C)c(Oc2ccccc2)c1C=NOCc1ccc(C(=O)OC(C)(C)C)cc1 [Fenpyroximate]
[1]
  Increase in sensitivity of neurite EC25, 120 h versus 24 h exposure: five-to-eightfold
[2]
  EC25: > 50.1 µM
[3]
  EC25: 12.6 µM
[4]; NeuriTox exposure scheme, 24 h, read-out: LUHMES 24 h EC25 NA (neurite area) (converted)
  EC25: 15.8 µM
[4]; NeuriTox exposure scheme, 24 h, read-out: LUHMES 24 h EC25 V (viability) (converted)
  EC25: 39.8 µM
[4]; NeuriTox test, neurite outgrowth impairment, LUHMES 24 h, read-out: EC25 KE4 (AO) Neurite toxicity (converted)
  EC25: 15.8 µM
[5]
  EC25: 0.794 µM
[6]
  Neurite degeneration (in words): degeneration of neurites; also recorded: increased neurite degeneration
  Reduction in viability: > 25%
